According to patent US20170143661A1 (priority 2015, published 2017):

Columns and labels:
Design in all cases: species or system broiler birds
Details in all cases: in vivo
Interleukin-6 (IL-6) = test system: Interleukin-6 (IL-6)
[1] = test system: Newcastle disease virus, NDV
Interferon-γ (IFN-γ) = test system: Interferon-γ (IFN-γ)
[2] = test system: Newcastle disease virus, NDV; remark: listed apart in the source
[3] = test system: Newcastle disease virus, NDV; remark: listed apart in the source
[4] = test system: Newcastle disease virus, NDV; remark: listed apart in the source

CCC(=O)[O-].CCC(=O)[O-].CCC(=O)[O-].[Cr+3] [chromium propionate]
post-challenge responses (serum cytokine) (Interleukin-6 (IL-6)): increasing trend
serum Interleukin-6 (IL-6) levels (Interleukin-6 (IL-6)): Significantly higher
serum antibody titers (HI) [1]: enhanced significantly
serum Interferon-γ (IFN-γ) levels (Interferon-γ (IFN-γ)): Significantly higher
serum antibody titers (ELISA) [2]: enhanced significantly
mean viral titer in different organs [3]: lower as compared to the control
daily mortality percentages [4]: lower
mortality by day 15 post-challenge [4]: 100%
onset of mortality [4]: delayed
